Results reported in patent US20260209220A1, “SUBSTITUTED TETRAHYDROPYRROLO-PYRIDINONE COMPOUNDS AND THEIR USE IN TREATING MEDICAL CONDITIONS” (Karuna Therapeutics, Inc., priority 2022, published 2026).

What was measured:
rM4 receptors = target: T1, rM4 receptors (Rattus norvegicus, UniProt P08485); experiment: Rat M4 PAM PERK assay (CHO cells, TR-FRET, with EC20 acetylcholine); assay type: cell-based
T1 construct: expressed in transfected cells; host or cells: CHO cells
T1 sequence (P08485 1-478): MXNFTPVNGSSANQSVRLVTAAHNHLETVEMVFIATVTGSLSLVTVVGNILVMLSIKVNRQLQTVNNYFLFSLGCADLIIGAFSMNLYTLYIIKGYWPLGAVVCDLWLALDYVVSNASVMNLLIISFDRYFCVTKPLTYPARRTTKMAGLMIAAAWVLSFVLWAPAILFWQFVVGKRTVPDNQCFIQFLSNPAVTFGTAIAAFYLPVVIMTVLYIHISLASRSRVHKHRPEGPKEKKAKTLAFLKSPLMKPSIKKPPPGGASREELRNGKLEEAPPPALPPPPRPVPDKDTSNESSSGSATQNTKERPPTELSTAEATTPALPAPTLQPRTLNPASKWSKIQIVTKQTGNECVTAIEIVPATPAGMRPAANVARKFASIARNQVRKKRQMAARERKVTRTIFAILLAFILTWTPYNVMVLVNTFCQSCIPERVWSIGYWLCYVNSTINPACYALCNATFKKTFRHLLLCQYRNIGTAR
Procedure: (§1) Chinese hamster ovary (CHO) cells expressing either hM4 or rM4 receptors were frozen in assay ready vials (5×10^6 cells/vial) after bulking-up in culture. The day before an assay, vial(s) were thawed and cells seeded in 384 well white proxiplates at 1000/well for hM4 cells and at 2000/well for rM4 cells, in 10 μL of growth media (Hams/F12 with glutamax and 10% FCS) and incubated overnight at 37° C./5% CO2.
(§2) On the following morning, the growth media was removed by ‘flicking out’ over a bin, patting the inverted plate onto tissue, and then replacing with 10 μL of wash media (Hams/F12 with glutamax and 8 mM HEPES, NB: serum free). Then, the wash media was removed in the same way and replaced with 8 μL/well of the serum free media. Plates were then re-incubated for a further 4 hours at 37° C./5% CO2.
(§3) Compounds for testing were solubilized to 10 mM in DMSO and compound addition plates, consisting of ten-point concentration response curves (CRC) in duplicate points (10 μM top concentration, ½ log dilution series), were prepared by acoustic dispensing and the compound management group.
(§4) After the 4-hour incubation in serum free media, a 4 μL aliquot of the 3×compound solution containing an EC20 of acetylcholine (10 nM final concentration) was added to the cell plate using a 384 well plate to plate transfer. Then, the plate lid was replaced, and the cells incubated for 5 mins at 37° C./5% CO2. Following this final incubation, all cellular processes were stopped by the addition of 4 μL/well of lysis and blocking buffer and plates were incubated for 30 minutes at RT on an orbital shaker (gentle setting). Then, a final addition of 4 μL/well of antibody detection mix, containing both the Europium-Cryptate (donor) and d2 (acceptor) tagged detection components, was added followed by a further 2-hour incubation at RT, and then the plate was read using a TR-FRET (time resolved fluorescence resonance energy transfer) based protocol.

hM4 receptors = target: T2, hM4 receptors (Homo sapiens, UniProt P08173); experiment: Human M4 PAM PERK assay (CHO cells, TR-FRET, with EC20 acetylcholine); assay type: cell-based
T2 construct: expressed in transfected cells; host or cells: CHO cells
T2 sequence (P08173 1-479): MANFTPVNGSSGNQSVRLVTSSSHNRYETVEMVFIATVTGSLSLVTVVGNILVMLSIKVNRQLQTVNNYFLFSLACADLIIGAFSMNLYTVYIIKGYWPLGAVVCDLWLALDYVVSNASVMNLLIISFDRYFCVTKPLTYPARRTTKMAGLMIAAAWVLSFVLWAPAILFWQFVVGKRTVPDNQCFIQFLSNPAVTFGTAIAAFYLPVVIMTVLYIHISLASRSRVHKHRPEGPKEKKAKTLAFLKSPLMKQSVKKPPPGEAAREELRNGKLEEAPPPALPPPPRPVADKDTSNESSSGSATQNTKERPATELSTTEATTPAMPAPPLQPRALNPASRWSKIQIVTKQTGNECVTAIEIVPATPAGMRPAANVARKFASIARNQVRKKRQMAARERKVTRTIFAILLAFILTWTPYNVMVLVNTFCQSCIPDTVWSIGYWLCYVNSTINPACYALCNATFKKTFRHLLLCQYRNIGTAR
Procedure: as §1, §2, §3, §4

Row | EC50 (rM4 receptors) [nM] | EC50 (hM4 receptors) [nM] | Compound
1 | > 1000 | > 1000 | Cc1cc(=O)n(C)c2c1C(C)N(C(=O)CC1CN(c3ccnc(C(F)(F)F)c3)C1)C2 (racemic) [Compound I-113, (±)-1,4,5-Trimethyl-6-(2-(1-(2-(trifluoromethyl)pyridin-4-yl)azetidin-3-yl)acetyl)-1,5,6,7-tetrahydro-2H-pyrrolo[3,4-b]pyridin-2-one]
2 | 200 to 1000 | < 50 | Cc1cc(=O)n(C)c2c1CN(C(=O)CC1CN(c3ccnc(C(F)(F)F)c3)C1)C2 [Compound I-1, 1,4-Dimethyl-6-(2-(1-(2-(trifluoromethyl)pyridin-4-yl)azetidin-3-yl)acetyl)-1,5,6,7-tetrahydro-2H-pyrrolo[3,4-b]pyridin-2-one]
3 | > 1000 | 50 to 200 | Cc1cc(=O)n(C)c2c1CN(C(=O)CC1CN(c3ccc(S(C)(=O)=O)cc3)C1)C2 [Compound I-2, 1,4-Dimethyl-6-(2-(1-(4-(methylsulfonyl)phenyl)azetidin-3-yl)acetyl)-1,5,6,7-tetrahydro-2H-pyrrolo[3,4-b]pyridin-2-one]
4 | > 1000 | < 50 | Cc1cc(=O)n(C)c2c1CN(C(=O)CC1CN(c3ccc(C(F)(F)F)cc3)C1)C2 [Compound I-5]
5 | 200 to 1000 | 200 to 1000 | Cc1cc(=O)n(C)c2c1CN(C(=O)CC1CN(c3ccncn3)C1)C2 [Compound I-6]
6 | 200 to 1000 | < 50 | COc1cncc(N2CC(CC(=O)N3Cc4c(C)cc(=O)n(C)c4C3)C2)c1 [Compound I-15]
7 | 200 to 1000 | 50 to 200 | Cc1cc(=O)n(C)c2c1CN(C(=O)CC1CN(c3ccc(F)c(F)c3)C1)C2 [Compound I-32]
8 | 50 to 200 | < 50 | Cc1c2c(n(C)c(=O)c1C)CN(C(=O)CC1CN(c3ccc(CC(C)(C)O)c(F)c3)C1)C2 [Compound I-57]
9 | < 50 | < 50 | Cc1c2c(n(C)c(=O)c1C)CN(C(=O)CC1CN(c3ccc(C4CC4)c(F)c3)C1C)C2 (stereo not shown) [Compound I-60, 6-(2-(1-(4-Cyclopropyl-3-fluorophenyl)-2-methylazetidin-3-yl)acetyl)-1,3,4-trimethyl-1,5,6,7-tetrahydro-2H-pyrrolo[3,4-b]pyridin-2-one]
10 | 50 to 200 | < 50 | Cc1c2c(n(C)c(=O)c1Cl)CN(C(=O)CC1CN(c3cccnc3)C1)C2 [Compound I-67]
11 | 50 to 200 | < 50 | Cc1c2c(n(C)c(=O)c1Cl)CN(C(=O)CC1CN(c3cncnc3)C1)C2 [Compound I-69]
12 | 200 to 1000 | < 50 | Cc1c2c(n(C)c(=O)c1Cl)CN(C(=O)CC1CN(c3ccccc3)C1)C2 [Compound I-71]
13 | 50 to 200 | < 50 | Cc1c2c(n(C)c(=O)c1Cl)CN(C(=O)CC1CN(c3cccc(C(F)(F)F)c3)C1)C2 [Compound I-73]
14 | 200 to 1000 | 50 to 200 | Cc1c2c(n(C)c(=O)c1Cl)CN(C(=O)CC1CN(c3ccccc3C(F)(F)F)C1)C2 [Compound I-74]
15 | 200 to 1000 | < 50 | COc1cc(N2CC(CC(=O)N3Cc4c(C)c(Cl)c(=O)n(C)c4C3)C2)ccn1 [Compound I-77]
16 | 50 to 200 | < 50 | Cc1c2c(n(C)c(=O)c1F)CN(C(=O)CC1CN(c3ccnc(C(F)(F)F)c3)C1)C2 [Compound I-84, 3-Fluoro-1,4-dimethyl-6-(2-(1-(2-(trifluoromethyl)pyridin-4-yl)azetidin-3-yl)acetyl)-1,5,6,7-tetrahydro-2H-pyrrolo[3,4-b]pyridin-2-one]
17 | 200 to 1000 | 200 to 1000 | Cc1c2c(n(C)c(=O)c1F)CN(C(=O)CC1CN(c3cccc(C(F)(F)F)c3F)C1)C2 [Compound I-86]

Continued, compound first:

Row | Compound | EC50 (rM4 receptors) [nM] | EC50 (hM4 receptors) [nM]
18 | Cc1c2c(n(C)c(=O)c1Cl)CN(C(=O)C(C)C1CN(c3ccnc(C(F)(F)F)c3)C1)C2 (single isomer, unassigned) [Compound I-83, 3-Chloro-1,4-dimethyl-6-(2-(1-(2-(trifluoromethyl)pyridin-4-yl)azetidin-3-yl)propanoyl)-1,5,6,7-tetrahydro-2H-pyrrolo[3,4-b]pyridin-2-one] | > 1000 | > 1000
19 | Cc1cc(=O)n(C)c2c1CN(C(=O)CC1CN(c3ccccn3)C1)C2 [Compound I-9] | 200 to 1000 | < 50
20 | Cc1cc(=O)n(C)c2c1CN(C(=O)CC1CN(c3cnnc(C4CC4)c3)C1)C2 [Compound I-38, 6-(2-(1-(6-Cyclopropylpyridazin-4-yl)azetidin-3-yl)acetyl)-1,4-dimethyl-1,5,6,7-tetrahydro-2H-pyrrolo[3,4-b]pyridin-2-one] | 200 to 1000 | 50 to 200
21 | Cc1cc(=O)n(C)c2c1CN(C(=O)CC1CN(c3cc(C4CC4)c(C#N)c(C(F)(F)F)c3)C1)C2 [Compound I-40, 2-Cyclopropyl-4-(3-(2-(1,4-dimethyl-2-oxo-1,2,5,7-tetrahydro-6H-pyrrolo[3,4-b]pyridin-6-yl)-2-oxoethyl)azetidin-1-yl)-6-(trifluoromethyl)benzonitrile] | 200 to 1000 | 200 to 1000
22 | COc1cccc(N2CC(CC(=O)N3Cc4c(C)c(C)c(=O)n(C)c4C3)C2)c1 [Compound I-47] | 200 to 1000 | 50 to 200
23 | Cc1c2c(n(C)c(=O)c1C)CN(C(=O)CC1CN(c3cccc(F)c3F)C1)C2 [Compound I-48] | 50 to 200 | < 50
24 | Cc1c2c(n(C)c(=O)c1C)CN(C(=O)CC1CN(c3ccc(F)c(C(F)(F)F)c3)C1)C2 [Compound I-49] | 50 to 200 | 50 to 200
25 | Cc1c2c(n(C)c(=O)c1C)CN(C(=O)CC1CN(c3cnc(C(F)(F)F)cn3)C1)C2 [Compound I-50] | 50 to 200 | 200 to 1000
26 | Cc1c2c(n(C)c(=O)c1C)CN(C(=O)CC1CN(c3ccc(OC(F)(F)F)cc3)C1)C2 [Compound I-52] | 50 to 200 | 50 to 200
27 | Cc1c2c(n(C)c(=O)c1C)CN(C(=O)CC1CN(c3ccc(C4CC4)c(F)c3)C1)C2 [Compound I-53] | 50 to 200 | < 50
28 | COc1cc(N2CC(CC(=O)N3Cc4c(C)c(C)c(=O)n(C)c4C3)C2)cc(C(F)(F)F)n1 [Compound I-54] | 200 to 1000 | 200 to 1000
29 | Cc1c2c(n(C)c(=O)c1Cl)CN(C(=O)CC1CN(c3ccncn3)C1)C2 [Compound I-70] | 200 to 1000 | < 50
30 | Cc1c2c(n(C)c(=O)c1Cl)CN(C(=O)CC1CN(c3cnccn3)C1)C2 [Compound I-72] | 50 to 200 | < 50
31 | COc1cncc(N2CC(CC(=O)N3Cc4c(C)c(Cl)c(=O)n(C)c4C3)C2)c1 [Compound I-75] | > 1000 | < 50
32 | Cc1c2c(n(C)c(=O)c1Cl)CN(C(=O)CC1CN(c3ccnnc3)C1)C2 [Compound I-81, 3-Chloro-1,4-dimethyl-6-(2-(1-(pyridazin-4-yl)azetidin-3-yl)acetyl)-1,5,6,7-tetrahydro-2H-pyrrolo[3,4-b]pyridin-2-one] | > 1000 | < 50
33 | Cc1c2c(n(C)c(=O)c1F)CN(C(=O)CC1CN(c3cccc(F)c3F)C1)C2 [Compound I-87] | 50 to 200 | < 50
34 | Cc1c2c(n(C)c(=O)c1F)CN(C(=O)CC1CN(c3ccc(F)c(C(F)(F)F)c3)C1)C2 [Compound I-89] | 50 to 200 | 50 to 200
35 | Cc1c2c(n(CC(F)(F)F)c(=O)c1Cl)CN(C(=O)CC1CN(c3cccnc3)C1)C2 [Compound I-93, 3-Chloro-4-methyl-6-(2-(1-(pyridin-3-yl)azetidin-3-yl)acetyl)-1-(2,2,2-trifluoroethyl)-1,5,6,7-tetrahydro-2H-pyrrolo[3,4-b]pyridin-2-one] | 50 to 200 | 50 to 200
